Data published in patent US20240382600A1, “BIFUNCTIONAL DEGRADERS COMPRISING A TEAD BINDER” (Novartis AG, priority 2021, published 2024).

How the values were obtained:
[1] = system: MKN-45/Ubc-luc cells (unspecific inhibition of luciferase expression or activity); assay: Reporter gene assay specificity control (Ubc-Luc), MKN-45; format: cell-based; conditions: MKN-45/Ubc-luc specificity control, 24 hrs
Source text: (§1) NCI-H2052 mesothelioma cells (RRID: CVCL_1518) bearing Hippo-pathway inactivating mutations upstream of YAP (homozygous deletion of LATS2 and mutation of NF2) were obtained from ATCC (American Type Culture Collection), while SF268 glioma cells (RRID: CVCL_1689) overexpressing YAP due to genomic amplification were obtained from the NCI (National Cancer Institute). MKN-45 gastric adenocarcinoma cells (RRID: CVCL_0434) genomically deleted for YAP were obtained from the JCRB (Japanese Collection of Research Bioresources) Cell Bank.
As a specificity control, MKN-45 cells were stably transduced with a Ubc-Luc reporter construct, in which constitutive expression of firefly luciferase is driven by the promoter of the ubiquitin C housekeeping gene. The resulting cell line, MKN-45/Ubc-luc, was selected and maintained in growth medium (RPMI 1640 (Amimed Cat #1-41F01-I), 2 mM L-Glutamine (Amimed Cat #5-10K50-H), 10% fetal calf serum (Amimed Cat #2-01F30-I Lot K08815P), 1% MEM Non-essential amino acids (Amimed Cat #5-13K00-H), 1× Penicillin/Streptomycin (Amimed Cat #4-01F00-H)) containing 1 μg/ml blasticidin (Gibco Cat #A11139-03).
(§2) Stock solutions of compounds were prepared at a concentration of 10 mM in DMSO and stored at 4° C. Where necessary to afford a full dose-response curve, the stock solutions were pre-diluted in DMSO to 1′000-fold the desired reduced start concentration. On the day after cell seeding, eleven 2-fold serial dilutions of each compound were dispensed directly into the cell assay plates using a HP 300D non-contact Digital Dispenser (TECAN). The final concentration of DMSO was normalized to 0.1% in all wells.
The ability of compounds to inhibit YAP-dependent transcription was assessed in NCI-H2052 Tet-On shYAP_2371 pLenti6 MCAT_Luc and SF268-MCAT_Luc, dox-i-shYAPLevy (Clone 13) cells, while specificity (lack of unspecific inhibition of luciferase expression or activity) was assessed in MKN-45/Ubc-luc cells. The individual cell lines were seeded at 2′500 cells/20 μl/well into white-wall, clear-bottom 384-well plates (Greiner, Cat #781098) and incubated over night at 37° C. prior to addition of serial compound dilutions as described above. Following incubation for 24 hrs at 37° C., compound-mediated modulation of reporter-gene activity was quantified 5 min after addition 20 μL […] BrightGlo (Promega Cat #E2620), by measuring luminescence intensity on a multi-mode plate-reader (TECAN) with an integration time of 100 ms.
(§3) For data analysis, the assay background value determined in wells containing medium, but no cells, was subtracted from all data points.

[2] = system: YAP-dependent transcription in SF268-MCAT_Luc_dox-i-shYAPLevy (Clone 13) cells; assay: YAP reporter gene activity assay (MCAT-Luc), SF268; format: cell-based; conditions: SF268 MCAT_Luc, 24 hrs
[3] = system: NCI-H2052 Tet-On shYAP_2371 pLenti6 MCAT_Luc cells; assay: Proliferation assay (resazurin/AlamarBlue), NCI-H2052; format: cell-based; conditions: NCI-H2052, 72 hours
Source text: as §1, §2
(§4) After incubation for 72 hours at 37° C., compound-mediated modulation of cell viability was quantified as follows. […] To enable differentiation of cytotoxic from cytostatic compound effects, the number of viable cells on the day of compound addition (day 0) was assessed in a separate cell plate and used to assess the extent of cell viability suppression as described in the following section.
as §3
(§5) The extent of growth inhibition and potential cell kill was assessed by comparing the resorufin levels in compound-treated cells with those present at the time of compound addition. To this end, the following conditional concept was programmatically applied in HELIOS to calculate % growth (% G) for each compound-treated well: % G=(T−V0)/V0))*100 when T<V0, and % G=(T−V0)/(V−V0)))*100 when T≥V0, where V0 is the viability level at time of compound addition, while V and T represent vehicle-control and compound-treated viability levels, respectively, at the end of the compound incubation. 100%, 0% and −100% signify absence of growth inhibition, growth stasis, and complete cell kill, respectively. Compound concentrations leading to half-maximal growth inhibition (GI50) and residual cell viability at the highest tested compound concentration (Data(cmax), expressed in percent) were routinely calculated.

MKN-45/Ubc-luc cells = assay: Proliferation assay (resazurin/AlamarBlue), MKN-45; format: cell-based; conditions: MKN-45, 72 hours
Source text: as §1
As a specificity control, MKN-45 cells were stably transduced with a Ubc-Luc reporter construct, in which constitutive expression of firefly luciferase is driven by the promoter of the ubiquitin C housekeeping gene.
as §2, §4, §3, §5

[4] = molecular target: Avi-humanTEAD4^217-434 / Cy5 labeled humanYAP^60-100 (Homo sapiens (Human), UniProt Q15561); assay: In-vitro biochemical TR-FRET assay (TEAD4/YAP); format: binding; conditions: 1 h at room temperature
Sequence of Avi-humanTEAD4^217-434 / Cy5 labeled humanYAP^60-100 (Q15561 217-434): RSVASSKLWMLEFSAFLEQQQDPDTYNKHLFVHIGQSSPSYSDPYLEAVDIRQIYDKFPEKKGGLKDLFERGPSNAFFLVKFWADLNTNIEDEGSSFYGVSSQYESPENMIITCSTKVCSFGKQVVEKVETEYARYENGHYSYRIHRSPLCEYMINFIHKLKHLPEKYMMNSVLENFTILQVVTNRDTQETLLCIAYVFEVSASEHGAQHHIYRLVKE
Description: N-terminus Cy5 labeled humanYAP^60-100 (20 nM) was then added to this preparation. Compounds were dissolved at 10 mM in 100% DMSO and serial dilutions were made in 100% DMSO. The diluted compound solutions were incubated in white 384-well plates (Greiner Bio-One) for 1 h at room temperature with the above described mix. The final DMSO concentration present in the assay was 1%. […] The IC50 values were estimated by fitting the data by nonlinear fit regression (GraphPad Prism).

[5] = system: SF268-MCAT_Luc_dox-i-shYAPLevy (Clone 13) cells; assay: Proliferation assay (resazurin/AlamarBlue), SF268; format: cell-based; conditions: SF268, 72 hours
Source text: as §1, §2, §4, §3, §5

[6] = system: YAP-dependent transcription in NCI-H2052 Tet-On shYAP_2371 pLenti6 MCAT_Luc cells; assay: YAP reporter gene activity assay (MCAT-Luc), NCI-H2052; format: cell-based; conditions: 24 hrs

| SMILES | IC50 ([1]; Homo sapiens) | IC50 ([2]; Homo sapiens, SF-268) | GI50 ([3]; Homo sapiens) | GI50 (MKN-45/Ubc-luc cells; Homo sapiens) | IC50 [4] | IC50 ([6]; Homo sapiens) | IC50 [1] | IC50 [2] | GI50 [3] | GI50 (MKN-45/Ubc-luc cells) | IC50 [6] | GI50 ([5]; Homo sapiens, SF-268) | GI50 [5] |
| --- | --- | --- | --- | --- | --- | --- | --- | --- | --- | --- | --- | --- | --- |
| COc1ccc(C(N)=O)c(-c2c(Cl)c(F)cc3c2[C@H](C)[C@@](CN[C@H]2CC[C@H](C(=O)N4CCC(CC5CCN(C(=O)COc6cc(-c7scnc7C)ccc6CNC(=O)[C@@H]6C[C@@H](O)CN6C(=O)[C@@H](NC(=O)C6(F)CC6)C(C)(C)C)CC5)CC4)CC2)(c2ccccc2)O3)c1F (atropisomer, axis not shown) [Example 42, (2S,4R)-N-(2-(2-(4-((1-((1S,4r)-4-((((2S,3S,4S)-4-(6-carbamoyl-2-fluoro-3-methoxyphenyl)-5-chloro-6-fluoro-3-methyl-2-phenyl-2,3-dihydrobenzofuran-2-yl)methyl)amino)cyclohexane-1-carbonyl)piperidin-4-yl)methyl)piperidin-1-yl)-2-oxoethoxy)-4-(4-methylthiazol-5-yl)benzyl)-1-((S)-2-(1-fluorocyclopropane-1-carboxamido)-3,3-dimethylbutanoyl)-4-hydroxypyrrolidine-2-carboxamide] | > 2000 nM | 0.45 nM | 31 nM | > 200 nM | 19 nM | 4.2 nM | – | – | – | – | – | 31 nM | – |
| COc1ccc(C(N)=O)c(-c2c(Cl)c(F)cc3c2[C@H](C)[C@@](CN[C@H]2CC[C@H](C(=O)N4CCC(C5CCN(C(=O)COc6cc(-c7scnc7C)ccc6CNC(=O)[C@@H]6C[C@@H](O)CN6C(=O)[C@@H](NC(=O)C6(F)CC6)C(C)(C)C)CC5)CC4)CC2)(c2ccccc2)O3)c1F (atropisomer, axis not shown) [Example 43, (2S,4R)-N-(2-(2-(1′-((1S,4r)-4-((((2S,3S,4S)-4-(6-carbamoyl-2-fluoro-3-methoxyphenyl)-5-chloro-6-fluoro-3-methyl-2-phenyl-2,3-dihydrobenzofuran-2-yl)methyl)amino)cyclohexane-1-carbonyl)-[4,4′-bipiperidin]-1-yl)-2-oxoethoxy)-4-(4-methylthiazol-5-yl)benzyl)-1-((S)-2-(1-fluorocyclopropane-1-carboxamido)-3,3-dimethylbutanoyl)-4-hydroxypyrrolidine-2-carboxamide] | > 2000 nM | 2.3 nM | 73 nM | > 200 nM | 8.7 nM | 17 nM | – | – | – | – | – | 68 nM | – |
| CNC(=O)c1cnc(OCCOCCn2cc(-c3ccc4c(c3)CN(C3CCC(=O)NC3=O)C4=O)nn2)c(F)c1-c1c(Cl)c(F)cc2c1C[C@](c1ccccc1)([C@@H]1CCCN1)O2 (stereo partly drawn) [Example 32, 4-((2S,4S)-5-Chloro-6-fluoro-2-phenyl-2-((S)-pyrrolidin-2-yl)-2,3-dihydrobenzofuran-4-yl)-6-(2-(2-(4-(2-(2,6-dioxopiperidin-3-yl)-1-oxoisoindolin-5-yl)-1H-1,2,3-triazol-1-yl)ethoxy)ethoxy)-5-fluoro-N-methylnicotinamide] | > 20000 nM | 2750 nM | 6290 nM | > 20000 nM | 23 nM | 5900 nM | – | – | – | – | – | > 20000 nM | – |
| CNC(=O)c1cnc(OCCOCCOCCn2cc(-c3ccc4c(c3)CN(C3CCC(=O)NC3=O)C4=O)nn2)c(F)c1-c1c(Cl)c(F)cc2c1C[C@](c1ccccc1)([C@@H]1CCCN1)O2 (stereo partly drawn) [Example 33, 4-((2S,4S)-5-chloro-6-fluoro-2-phenyl-2-((S)-pyrrolidin-2-yl)-2,3-dihydrobenzofuran-4-yl)-6-(2-(2-(2-(4-(2-(2,6-dioxopiperidin-3-yl)-1-oxoisoindolin-5-yl)-1H-1,2,3-triazol-1-yl)ethoxy)ethoxy)ethoxy)-5-fluoro-N-methylnicotinamide] | > 20000 nM | 1340 nM | 4400 nM | > 20000 nM | 94 nM | 3140 nM | – | – | – | – | – | > 20000 nM | – |
| COc1ccc(C(=O)NCCCCCc2cccc3c2CN(C2CCC(=O)NC2=O)C3=O)c(-c2c(Cl)c(F)cc3c2C[C@@](CN)(c2ccccc2)O3)c1F (stereo partly drawn) [Example 36, 2-((2S,4S)-2-(aminomethyl)-5-chloro-6-fluoro-2-phenyl-2,3-dihydrobenzofuran-4-yl)-N-(5-(2-(2,6-dioxopiperidin-3-yl)-1-oxoisoindolin-4-yl)pentyl)-3-fluoro-4-methoxybenzamide] | 8760 nM | 9.3 nM | 160 nM | 8760 nM | 92 nM | 24 nM | – | – | – | – | – | 8420 nM | – |

Now those with a lower IC50 [4], led by results:

| IC50 ([1]; Homo sapiens) | IC50 ([2]; Homo sapiens, SF-268) | GI50 ([3]; Homo sapiens) | GI50 (MKN-45/Ubc-luc cells; Homo sapiens) | IC50 [4] | IC50 ([6]; Homo sapiens) | IC50 [1] | IC50 [2] | GI50 [3] | GI50 (MKN-45/Ubc-luc cells) | IC50 [6] | SMILES | GI50 ([5]; Homo sapiens, SF-268) | GI50 [5] |
| --- | --- | --- | --- | --- | --- | --- | --- | --- | --- | --- | --- | --- | --- |
| 44 nM | 23 nM | 35 nM | 33 nM | 7.2 nM | 32 nM | – | – | – | – | – | COc1ccc(C(N)=O)c(-c2c(Cl)c(F)cc3c2[C@H](C)[C@@](CNCCCCCc2cccc4c2CN(C2CCC(=O)NC2=O)C4=O)(c2ccccc2)O3)c1F (stereo partly drawn) [Example 35, 2-((2S,3S,4S)-5-chloro-2-(((5-(2-(2,6-dioxopiperidin-3-yl)-1-oxoisoindolin-4-yl)pentyl)amino)methyl)-6-fluoro-3-methyl-2-phenyl-2,3-dihydrobenzofuran-4-yl)-3-fluoro-4-methoxybenzamide] | < 20 nM | – |
| > 20000 nM | 3530 nM | 2270 nM | > 20000 nM | 6.9 nM | 2800 nM | – | – | – | – | – | CNC(=O)c1cnc(OCCOCCOCCn2cc(-c3cccc(N4CCC(=O)NC4=O)c3)nn2)c(F)c1-c1c(Cl)c(F)cc2c1C[C@](c1ccccc1)([C@@H]1CCCN1)O2 (atropisomer, axis not shown) [Example 34, 4-((2S,4S)-5-chloro-6-fluoro-2-phenyl-2-((S)-pyrrolidin-2-yl)-2,3-dihydrobenzofuran-4-yl)-6-(2-(2-(2-(4-(3-(2,4-dioxotetrahydropyrimidin-1(2H)-yl)phenyl)-1H-1,2,3-triazol-1-yl)ethoxy)ethoxy)ethoxy)-5-fluoro-N-methylnicotinamide] | 19300 nM | – |
| – | – | – | – | 1.9 nM | – | 14300 nM | 33 nM | 27 nM | 4110 nM | 40 nM | COc1ccc(C(N)=O)c(-c2c(Cl)c(F)cc3c2[C@H](C)[C@@](CN[C@H]2CC[C@H](C(=O)OC)CC2)(c2ccccc2)O3)c1F [C-I-k, Methyl (1S,4r)-4-((((2S,3S,4S)-4-(6-carbamoyl-2-fluoro-3-methoxyphenyl)-5-chloro-6-fluoro-3-methyl-2-phenyl-2,3-dihydrobenzofuran-2-yl)methyl)amino)cyclohexane-1-carboxylate] | – | 390 nM |
